Measurements taken from article PMC4769084, “Aminoglycoside binding and catalysis specificity of aminoglycoside 2″-phosphotransferase IVa: A thermodynamic, structural and kinetic study” (Biochimica et Biophysica Acta, 2016).
Where two headings read alike, the source gives them in different places.

Experiments:
APH(2″)-IVa [1] = biological target: T1, APH(2″)-IVa (Enterococcus casseliflavus, UniProt O68183); assay: Isothermal titration calorimetry of aminoglycoside binding
Protocol: The enzyme was extensively dialyzed against buffer containing 50 mM Tris–HCl at pH 7.5, 40 mM KCl, 1 mM MgCl2 and ligand solutions were prepared at 5 mM in the final dialysate with readjusting pH to 7.5. The enzyme was used at a final concentration of 150 μM. ITC experiments were carried out at 25 °C in a VP-ITC calorimeter (MicroCal, GE Healthcare). Titrations consisted of 40 injections of 5 μL of ligand every 300 s. The cell stirring speed was 300 rpm. To obtain reliable dissociation constants, the c-value, a unitless parameter obtained by the multiplication of the association constant and the total concentration of ligand binding sites, was kept between 1.8 and 100 for all titrations. Control runs were performed by titrating ligands to buffer, and the resulting background signal was subtracted from the corresponding experimental data. Experiments were carried out at 1 mM free Mg^2 +.
Binding and thermodynamic parameters Ka (association constant), ΔH (enthalpy change) and stoichiometry were obtained by nonlinear least-squares fitting of experimental data using a single-site binding model of the Origin software package (version 5.0) provided with the instrument. The free energy of binding (ΔG) and entropy change at 25 °C (ΔS) were obtained using the following equations:(1) ΔG=–RTlnKa (2) ΔG=ΔH–TΔS
The experiments were performed in triplicate (except with G418 and kanamycin B, in duplicate) and the error values given in the tables are standard deviations.

APH(2″)-IVa [2] = biological target: T1, APH(2″)-IVa; conditions: for Kd/Km: ratio of ITC Kd to steady state Km; for Km / kcat: saturating MgATP (2.5 mM), aminoglycoside 0 to 100 μM, 25 °C, pH 7.5; for Km: na = no detectable activity; for kcat: na = no detectable activity (< 0.001 s^− 1), enzyme up to 5 μM; for phosphotransferase activity: confirmed at 5 μM APH(2″)-IVa, 2.5 mM ATP
Protocol: (§1) Unless otherwise stated, kinetic experiments were carried out in a buffer that contained 50 mM Tris, 40 mM KCl, 1 mM free MgCl2 adjusted to pH 7.5 with HCl at 25 °C. In the case of experiments with CaATP, the buffer was MgCl2-free.
Steady state kinetics were carried out in thermostatically controlled beakers as already described. Unless otherwise stated, the enzyme concentration was 0.5 μM in the presence of various concentrations of aminoglycoside (5 to 100 μM). […] At regular intervals, a volume of 80 μL of the reaction mixture was sampled from the beaker and mixed in a tube containing 40 μL of perchloric acid at 10%. The precipitated protein was then removed by centrifugation at 4 °C, 20 min at 19,000 g. ADP and ATP were separated by HPLC (Waters) on an anion-exchange column (SAX-Partisphere, AIT France). The mobile phase was 200 mM ammonium phosphate–HCl buffer at pH 5.5 and 10% acetonitrile. A 100 μL volume of the quenched reaction mixture was diluted in 900 μL of buffer containing the mobile phase supplemented with 5 N KOH to readjust the pH to 5.5. Quantification of ADP and ATP was obtained by integrating HPLC peaks at 259 nm and their concentrations were reported relative to the enzyme concentration. […] For each injected sample, the concentration of ADP was calculated using the following equation, where [ATP]i is the initial ATP concentration used in the experiment:(3) ADP=ADPpeakarea×ATPi/ADPpeakarea+ATPpeakarea

[3] = tested on: NC[C@H]1O[C@H](O[C@H]2[C@H](O)[C@@H](O[C@H]3O[C@H](CO)[C@@H](O)[C@H](N)[C@H]3O)[C@H](N)C[C@@H]2N)[C@H](N)[C@@H](O)[C@@H]1O; assay: purified protein, by the assay type; conditions: other: saturating MgATP (2.5 mM), aminoglycoside 0 to 100 μM, 25 °C, pH 7.5, na = no detectable activity
Protocol: (§3) Steady state kinetics were carried out in thermostatically controlled beakers as already described [27]. Unless otherwise stated, the enzyme concentration was 0.5 μM in the presence of various concentrations of aminoglycoside (5 to 100 μM). […] Reactions were initiated by adding a saturating concentration of ATP (2.5 mM) in a thermostatically controlled beaker containing APH(2″)-IVa and aminoglycoside. At regular intervals, a volume of 80 μL of the reaction mixture was sampled from the beaker and mixed in a tube containing 40 μL of perchloric acid at 10%. The precipitated protein was then removed by centrifugation at 4 °C, 20 min at 19,000 g. ADP and ATP were separated by HPLC (Waters) on an anion-exchange column (SAX-Partisphere, AIT France). The mobile phase was 200 mM ammonium phosphate–HCl buffer at pH 5.5 and 10% acetonitrile. A 100 μL volume of the quenched reaction mixture was diluted in 900 μL of buffer containing the mobile phase supplemented with 5 N KOH to readjust the pH to 5.5. Quantification of ADP and ATP was obtained by integrating HPLC peaks at 259 nm and their concentrations were reported relative to the enzyme concentration. Concentrations (in the quenched reaction mixtures) between 0.5 and 500 μM of ADP or ATP gave a linear and equivalent OD259 response. For each injected sample, the concentration of ADP was calculated using the following equation, where [ATP]i is the initial ATP concentration used in the experiment:(3) ADP=ADPpeakarea×ATPi/ADPpeakarea+ATPpeakarea

[4] = tested on: NC[C@H]1O[C@H](O[C@H]2[C@H](O)[C@@H](O[C@H]3O[C@H](CO)[C@@H](O)[C@H](N)[C@H]3O)[C@H](N)C[C@@H]2N)[C@H](N)C[C@@H]1O; assay: purified protein, by the assay type; conditions: other: saturating MgATP (2.5 mM), aminoglycoside 0 to 100 μM, 25 °C, pH 7.5, na = no detectable activity
Protocol: as §3

[5] = tested on: CN[C@@H]1[C@@H](O)[C@@H](O[C@@H]2[C@@H](O)[C@H](O[C@H]3OC(CN)=CC[C@H]3N)[C@@H](N)C[C@H]2N)OC[C@]1(C)O; assay: purified protein, by the assay type; conditions: other: saturating MgATP (2.5 mM), aminoglycoside 0 to 100 μM, 25 °C, pH 7.5, na = no detectable activity
Protocol: as §3

APH(2″)-IVa [6] = biological target: T1, APH(2″)-IVa; assay: Transient kinetics, rapid quench–flow (total ADP); format: biochemical; conditions: 5 μM APH(2″)-IVa, 500 μM ATP, 100 μM aminoglycoside; for Aburst: ± standard error of fit
Protocol: as §1
(§2) Transient kinetic experiments were carried out at 25 °C in a QFM-400 quench–flow (Bio-Logic, France) or in a SF-61 DX2 stopped–flow (TgK Scientific, UK). In the quench–flow method, APH(2″)-IVa, pre-incubated with the aminoglycoside, was mixed with ATP in the apparatus. The mixtures were aged for specific times (from 8 ms to several seconds), quenched in 10% perchloric acid and the ADP and ATP measured by HPLC, as described above. Because perchloric acid dissociates all non-covalent complexes, by this method, concentrations in the reaction mixtures of total ADP, that is to say enzyme-bound ADP plus free ADP, are obtained. In the stopped–flow experiments, a free ADP fluorescent biosensor, MDCC-ParM [28], was included in the ATP solution. By this method, concentrations in the reaction mixtures of free ADP only are obtained. Experiments were carried out as previously described for APH(3′)-IIIa.

APH(2″)-IVa [7] = biological target: T1, APH(2″)-IVa; assay: Transient kinetics, stopped–flow with MDCC-ParM ADP biosensor (free ADP); format: biochemical; conditions: 5 μM APH(2″)-IVa, 500 μM ATP, 100 μM aminoglycoside, 50 μM MDCC-ParM
Protocol: as §1, §2

APH(2″)-IVa [8] = tested on: APH(2″)-IVa; design: method as in Toth et al. [5]; conditions: values in brackets, coupled enzyme system; ref Toth et al. [5]; cited from earlier work

T1 sequence (O68183 entry or part of it): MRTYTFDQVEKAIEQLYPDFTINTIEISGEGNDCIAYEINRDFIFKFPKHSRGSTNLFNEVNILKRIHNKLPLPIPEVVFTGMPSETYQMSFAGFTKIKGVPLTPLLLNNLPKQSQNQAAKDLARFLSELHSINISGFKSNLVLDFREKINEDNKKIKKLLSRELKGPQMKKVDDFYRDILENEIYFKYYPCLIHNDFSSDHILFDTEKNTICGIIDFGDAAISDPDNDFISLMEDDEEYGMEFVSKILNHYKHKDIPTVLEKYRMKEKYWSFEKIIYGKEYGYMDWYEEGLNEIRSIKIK

Row | Compound | Kd (APH(2″)-IVa [1]) [µM] | Kd/Km (APH(2″)-IVa [2]) | kburst (APH(2″)-IVa [6]) [s^− 1] | kss (APH(2″)-IVa [6]) [s^− 1] | Aburst (APH(2″)-IVa [6]) [mol/mol] | klag (APH(2″)-IVa [7]) [s^− 1] | kss (APH(2″)-IVa [7]) [s^− 1] | Km (APH(2″)-IVa [8]) [µM] | kcat (APH(2″)-IVa [8]) | also measured
1 | CNC(C)C1CCC(N)C(OC2C(N)CC(N)C(OC3OCC(C)(O)C(NC)C3O)C2O)O1 (centres unmarked) [Gentamicin] | 9.7 ± 5 | 2.9 |  |  |  |  |  |  |  | Km (APH(2″)-IVa [2]): 3.3 ± 0.6 µM; kcat (APH(2″)-IVa [2]): 0.47 ± 0.01 s^− 1
2 | APH(2″)-IVa (Enterococcus casseliflavus) |  |  |  |  |  |  |  |  |  | Km [3]: 12.5 ± 2.9 µM; kcat [3]: 1.69 ± 0.11 s^− 1; kcat/Km [3]: 0.135 μM^− 1 s^− 1; Km [4]: 13.2 ± 2.2 µM; kcat [4]: 1.64 ± 0.08 s^− 1; kcat/Km [4]: 0.124 μM^− 1 s^− 1; Km [5]: 3.5 ± 0.6 µM; kcat [5]: 0.73 ± 0.02 s^− 1; kcat/Km [5]: 0.209 μM^− 1 s^− 1
3 | NC[C@H]1O[C@H](O[C@H]2[C@H](O)[C@@H](O[C@H]3O[C@H](CO)[C@@H](O)[C@H](N)[C@H]3O)[C@H](N)C[C@@H]2N)[C@H](N)C[C@@H]1O [Tobramycin] | 3.9 ± 0.6 | 0.3 | 2.1 ± 0.4 | 1.08 ± 0.02 | 0.44 ± 0.05 | 3.3 ± 0.1 | 1.05 ± 0.01 | 1.5 | (1.80 ± 0.03) s^− 1 | affinity of the apoprotein, times greater than for kanamycin A and for amikacin (APH(2″)-IVa [1]; ITC Kd comparison): 20 times
4 | NC[C@@H]1O[C@H](O[C@H]2[C@@H](O)[C@H](O[C@@H]3[C@@H](O)[C@H](N)C[C@H](N)[C@H]3O[C@H]3O[C@H](CO)[C@@H](O)[C@H](O)[C@H]3N)O[C@@H]2CO)[C@H](N)[C@@H](O)[C@@H]1O [Paromomycin] | 63.6 ± 29 |  |  |  |  |  |  |  |  | phosphotransferase activity (APH(2″)-IVa [2]): absence of activity
5 | CN[C@@H]1[C@@H](O)[C@@H](O[C@@H]2[C@@H](O)[C@H](O[C@H]3O[C@H]([C@@H](C)O)[C@@H](O)[C@H](O)[C@H]3N)[C@@H](N)C[C@H]2N)OC[C@]1(C)O [G418] |  | 12.5 | 2.0 ± 1.1 | 0.35 ± 0.04 | 0.34 ± 0.11 | 1.6 ± 0.1 | 0.33 ± 0.01 |  |  | Kd (APH(2″)-IVa [1]; read-out: Kd): 27.5 ± 3.3 µM; Km (APH(2″)-IVa [2]): 2.2 ± 0.4 µM; kcat (APH(2″)-IVa [2]): 0.49 ± 0.01 s^− 1
6 | NC[C@H]1O[C@H](O[C@H]2[C@H](O)[C@@H](O[C@H]3O[C@H](CO)[C@@H](O)[C@H](N)[C@H]3O)[C@H](N)C[C@@H]2N)[C@H](N)[C@@H](O)[C@@H]1O [Kanamycin B] | 5.7 ± 1.1 | 0.5 |  |  |  |  |  |  |  | 
7 | NCC[C@H](O)C(=O)N[C@@H]1C[C@H](N)[C@@H](O[C@H]2O[C@H](CN)[C@@H](O)[C@H](O)[C@H]2O)[C@H](O)[C@H]1O[C@H]1O[C@H](CO)[C@@H](O)[C@H](N)[C@H]1O [Amikacin] | 82.2 ± 8.9 |  |  |  |  |  |  | 98 | (0.15 ± 0.01) s^− 1 | phosphotransferase activity (APH(2″)-IVa [2]): absence of activity
8 | Kanamycin A |  | 20.0 | 3.4 ± 0.7 | 0.77 ± 0.02 | 0.38 ± 0.04 | 3.4 ± 0.1 | 0.70 ± 0.01 | 3.3 | (0.92 ± 0.01) s^− 1 | Kd, fold larger compared to tobramycin (APH(2″)-IVa [1]; ITC Kd comparison): 20 fold; steady state rate constant (APH(2″)-IVa [2]; 0.5 μM APH(2″)-IVa, 100 μM kanamycin A, 100 μM MgATP): 0.23 s^− 1; steady state rate constant (APH(2″)-IVa [2]; 0.5 μM APH(2″)-IVa, 100 μM kanamycin A, 200 μM MgATP): 0.37 s^− 1; kss, CaATP phosphotransferase activity (APH(2″)-IVa [2]; 0.5 μM APH(2″)-IVa, 100 μM kanamycin A, 2 mM CaATP): 0.092 s^− 1; kss, MgATP phosphotransferase activity (APH(2″)-IVa [2]; 0.5 μM APH(2″)-IVa, 100 μM kanamycin A, 2 mM MgATP): 0.84 s^− 1; Km, fold lower compared with tobramycin (APH(2″)-IVa [2]; in the presence of ATP): 3.3 fold; Kd/Km (APH(2″)-IVa [2]; listed as kanamycin A): 20
9 | CN[C@@H]1[C@@H](O)[C@@H](O[C@@H]2[C@@H](O)[C@H](O[C@H]3OC(CN)=CC[C@H]3N)[C@@H](N)C[C@H]2N)OC[C@]1(C)O [Sisomicin] | 2.3 ± 1.6 | 0.7 | 2.0 ± 0.4 | 0.50 ± 0.02 | 0.48 ± 0.07 | 1.6 ± 0.1 | 0.48 ± 0.01 |  |  | 
